This note sets out measurements from US20230093099A1, “COMPOUNDS AND METHODS OF TREATING CANCERS” (CULLGEN (SHANGHAI), INC., priority 2019, published 2023).

Read-outs that look alike come from different tables or passages of the source.

Type in all cases: cell-based
The subject of one assay is MOLM-13 cells. The assay can be described thus: Cell viability assay (CellTiter-Glo) in MOLM-13 cells. To be noted: Homo sapiens, 72 h, MOLM-13, AML, 3 days. The protocol:
(§1) MV4;11, RS4;11, Kasumi-1, HEL and other cells were treated with NVP-BSK805, TG101209 or selected degraders for 3 days at indicated concentrations following a 3-fold serial dilution.
(§2) HEL, RS4;11, MV4;11, Kasumi-1 and other cells were cultured at 37° C. with 5% CO2 in RPMI 1640 or DMEM Medium supplemented with 10% fetal bovine serum. Cells were authenticated using the short tandem repeat (STR) assays. Mycoplasma test results were negative.
(§3) Cells were seeded at a density of 5000 cells per well in 96-well assay plates and treated with test compounds following a 8-point or 12-point 3-fold serial dilution. Three days later, cell viability was determined using the CellTiter-Glo assay kit according to the manufacturer's instructions. The dose-response curves were determined and IC50 values were calculated using the GraphPad Prism software following a nonlinear regression (least squares fit) method.
Background: ATP-based viability assays read luminescence as a measure of living cells.

The test system of the next assay is Pfeiffer cells. The assay can be described thus: Cell viability assay (CellTiter-Glo) in Pfeiffer cells. To be noted: Homo sapiens, 72 h, DLBCL, 3 days. The protocol: as §1, §2, §3
Another assay addresses T1, JAK1 (Homo sapiens, UniProt P23458).
T1 construct: immunoblot of JAK1/3 proteins expressed in RS4;11 cells; endogenous in cells; host or cells: RS4;11 cells
Kind of assay: Immunoblot of JAK1 protein level in HEL cells. To be noted: 24 hours, immunoblot (FIG. 1). The protocol:
HEL cells harboring JAK2-V617F mutation were treated with compounds at indicated concentrations for 24 hours. […] The concentrations required to reduce JAK2-V617 by 50% (DC50) were below 60 nM for compound JA-213.
as §2
(§4) Rabbit anti-JAK1 antibody (3344S), anti-JAK2 antibody (3230S), anti-JAK3 antibody (8827S), anti-TYK2 antibody (14193S), anti-FLT3 antibody (3462S), anti-RET antibody (14556S), anti-phospho-STAT3 (Tyr705) antibody (9145S) and anti-phospho-STAT5 (Tyr694) antibody (4322S) were purchased from Cell Signaling Technology. Rabbit anti-GSPT1 antibody (ab126090) was purchased from Abcam. HRP-conjugated anti-α-tubulin antibody was produced in house. Media and other cell culture reagents were purchased from Thermo Fisher. The CellTiter-Glo Luminescent Assay kit was purchased from Promega.
(§5) Cultured cells were washed with cold PBS once and lysed in cold RIPA buffer supplemented with protease inhibitors and phosphatase inhibitors (Beyotime Biotechnology). […] Total protein concentrations in the lysates were determined by BCA assays (Beyotime Biotechnology). […] Protein bands were quantitated using the accompanied software provided by Bio-Rad.

For a further assay, the system named is HEL cells. Kind of assay: Cell viability assay (CellTiter-Glo) in HEL cells. To be noted: 3 days; for cell viability inhibition in combination with pomalidomide: pomalidomide at 10 μM (FIG. 4); for IC50: Homo sapiens, 72 h, erythroleukemia, cell viability. On the procedure:
as §1, §2, §3

Another assay deals with AMO-1 cells. Kind of assay: Cell viability assay (CellTiter-Glo) in AMO-1 cells. To be noted: Homo sapiens, AMO1, 72 h, AMO-1, Multiple Myeloma, 3 days. The protocol:
as §1, §2, §3

A further assay deals with KM12 cells. The assay can be described thus: Cell viability assay (CellTiter-Glo) in KM12 cells. To be noted: Homo sapiens, 72 h, KM12, colorectal carcinoma, 3 days. The protocol: as §1, §2, §3
A further assay has as its target T2, JAK3 (Homo sapiens, UniProt P52333).
T2 construct: immunoblot of JAK1/2/3 proteins expressed in HEL cells; endogenous in cells; host or cells: HEL cells
T2 sequence (P52333 1-1124): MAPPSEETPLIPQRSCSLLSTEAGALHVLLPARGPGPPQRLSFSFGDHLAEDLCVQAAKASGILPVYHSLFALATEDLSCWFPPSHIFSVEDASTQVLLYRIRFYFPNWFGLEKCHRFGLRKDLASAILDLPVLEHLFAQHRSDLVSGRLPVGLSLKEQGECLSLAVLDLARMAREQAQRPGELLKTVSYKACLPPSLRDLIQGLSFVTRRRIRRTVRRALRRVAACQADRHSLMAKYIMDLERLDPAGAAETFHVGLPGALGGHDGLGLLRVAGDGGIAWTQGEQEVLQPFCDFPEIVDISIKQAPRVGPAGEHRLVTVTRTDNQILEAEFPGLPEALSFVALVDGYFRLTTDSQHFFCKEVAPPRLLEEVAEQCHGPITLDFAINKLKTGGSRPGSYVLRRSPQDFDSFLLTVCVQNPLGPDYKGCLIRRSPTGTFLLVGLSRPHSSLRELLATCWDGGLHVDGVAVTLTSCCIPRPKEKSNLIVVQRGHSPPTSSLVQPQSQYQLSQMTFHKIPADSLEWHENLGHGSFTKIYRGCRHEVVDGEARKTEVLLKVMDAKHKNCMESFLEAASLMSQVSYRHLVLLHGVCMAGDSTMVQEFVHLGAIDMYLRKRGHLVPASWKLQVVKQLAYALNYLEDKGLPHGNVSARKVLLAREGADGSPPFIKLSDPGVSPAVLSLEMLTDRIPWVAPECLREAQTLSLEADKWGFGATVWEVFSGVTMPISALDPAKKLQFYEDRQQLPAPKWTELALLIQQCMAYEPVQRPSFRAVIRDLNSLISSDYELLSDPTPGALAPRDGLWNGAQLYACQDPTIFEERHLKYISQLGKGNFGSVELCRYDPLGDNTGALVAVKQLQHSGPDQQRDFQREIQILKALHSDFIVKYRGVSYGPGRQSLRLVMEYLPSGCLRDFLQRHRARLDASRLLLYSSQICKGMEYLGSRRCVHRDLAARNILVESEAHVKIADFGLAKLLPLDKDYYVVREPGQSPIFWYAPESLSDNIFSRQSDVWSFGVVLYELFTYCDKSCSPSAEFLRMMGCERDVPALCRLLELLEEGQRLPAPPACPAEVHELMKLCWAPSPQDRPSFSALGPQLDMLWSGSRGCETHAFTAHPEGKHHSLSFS
The assay can be described thus: Immunoblot of JAK3 protein level in RS4;11 cells. To be noted: immunoblot (FIG. 2). The protocol: To confirm JA-189 and JA-213 are true JAK degraders, HEL cell were treated with these two compounds at various compounds concentrations.
as §2, §4, §5
In general terms: A western blot detects proteins with antibodies after separation by electrophoresis.

The test system of another assay is RS4;11 cells. The assay can be described thus: Cell viability assay (CellTiter-Glo) in RS4;11 cells. To be noted: for IC50: Homo sapiens, 72 h; for cell viability inhibition in combination with pomalidomide: RS4;11, 3 days, pomalidomide at 10 μM (FIG. 4). In outline:
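RS4;11 cells seeded at 5000 per well, exposed for 3 days to 8- or 12-point 3-fold serial dilutions. Viability read by CellTiter-Glo luminescence; IC50 fitted by nonlinear least-squares regression.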

The subject of the next assay is NCI-H929 cells. The assay can be described thus: Cell viability assay (CellTiter-Glo) in NCI-H929 cells. To be noted: Homo sapiens, 72 h, NCI-H929, Multiple Myeloma, 3 days. The protocol:
as §1, §2, §3

The mark [1] stands for this setting: RS4;11 ALL cells treated for three days, read-out: cell viability inhibition IC50.
Where [2] appears, read: RS4;11 cells, cell viability, 3 days, CellTiter-Glo, read-out: IC50.

T1 sequence (P23458 whole entry): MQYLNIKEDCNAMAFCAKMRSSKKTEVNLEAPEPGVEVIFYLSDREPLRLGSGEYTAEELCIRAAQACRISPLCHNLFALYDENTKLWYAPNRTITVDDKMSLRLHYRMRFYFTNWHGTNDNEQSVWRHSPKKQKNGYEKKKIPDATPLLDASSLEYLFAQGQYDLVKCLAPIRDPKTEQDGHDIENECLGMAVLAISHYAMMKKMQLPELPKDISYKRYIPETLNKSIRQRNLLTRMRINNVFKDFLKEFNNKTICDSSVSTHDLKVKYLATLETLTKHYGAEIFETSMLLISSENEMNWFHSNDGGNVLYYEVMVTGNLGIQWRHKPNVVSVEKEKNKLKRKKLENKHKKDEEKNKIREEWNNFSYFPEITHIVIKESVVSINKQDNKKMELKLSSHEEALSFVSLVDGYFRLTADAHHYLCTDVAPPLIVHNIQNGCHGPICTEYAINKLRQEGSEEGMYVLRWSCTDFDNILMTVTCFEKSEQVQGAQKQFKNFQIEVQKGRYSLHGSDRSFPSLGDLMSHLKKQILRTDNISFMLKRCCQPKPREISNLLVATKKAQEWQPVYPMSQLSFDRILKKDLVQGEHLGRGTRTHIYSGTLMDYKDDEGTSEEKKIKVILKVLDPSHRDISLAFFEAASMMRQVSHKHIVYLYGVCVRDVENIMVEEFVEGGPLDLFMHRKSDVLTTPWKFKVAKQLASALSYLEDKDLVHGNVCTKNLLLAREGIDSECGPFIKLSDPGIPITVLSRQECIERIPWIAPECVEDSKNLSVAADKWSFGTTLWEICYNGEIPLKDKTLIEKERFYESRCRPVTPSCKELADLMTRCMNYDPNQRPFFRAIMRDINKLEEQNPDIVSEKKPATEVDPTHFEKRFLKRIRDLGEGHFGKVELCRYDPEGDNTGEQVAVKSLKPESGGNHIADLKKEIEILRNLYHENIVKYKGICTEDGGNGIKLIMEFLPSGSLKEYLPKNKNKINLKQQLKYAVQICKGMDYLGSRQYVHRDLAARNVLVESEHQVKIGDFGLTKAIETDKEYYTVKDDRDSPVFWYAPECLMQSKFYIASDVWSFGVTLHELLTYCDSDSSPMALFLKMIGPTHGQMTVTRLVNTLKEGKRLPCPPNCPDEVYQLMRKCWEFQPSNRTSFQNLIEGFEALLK

`O=C1CCC(N2C(=O)c3ccc(NCCCCCC(=O)N4CCC(n5cc(-c6cnc7cccc(-c8cc(F)c(CN9CCOCC9)c(F)c8)c7n6)cn5)CC4)cc3C2=O)C(=O)N1` (stereo not drawn) [JA-189, 5-((6-(4-(4-(8-(3,5-difluoro-4-(morpholinomethyl)phenyl)quinoxalin-2-yl)-1H-pyrazol-1-yl)piperidin-1-yl)-6-oxohexyl)amino)-2-(2,6-dioxopiperidin-3-yl)isoindoline-1,3-dione]: the IC50 with MOLM-13 cells was 0.0208 µM; in the assay on Pfeiffer cells, 0.32 µM; in the assay with HEL cells, 0.177 µM; with AMO-1 cells, 0.612 µM; with KM12 cells it was 2.37 µM; in the assay on RS4;11 cells (setting [1]) it was < 0.1 µM. In addition, the IC50 in the assay on RS4;11 cells (setting [2]) worked out at 0.00203 µM; with NCI-H929 cells, 0.106 µM. Moreover, the JAK1 protein level entry on JAK1 is “able to reduce JAK1, JAK2 and JAK3 protein levels”. In addition, the “cell viability inhibition in combination with pomalidomide” value in the assay on HEL cells and with RS4;11 cells was “greatly reduce the potencies of the degraders” throughout. Moreover, the JAK3 protein level entry on JAK3 was “even better activity in reducing the JAK1 and JAK3 protein levels”.
For `CS(=O)(=O)c1ccc(-c2cccc3nc(Nc4ccc(N5CCN(CC(=O)NCCCCCCCCNc6ccc7c(c6)C(=O)N(C6CCC(=O)NC6=O)C7=O)CC5)cc4)nn23)cc1` (stereo not drawn) [JA-213], the IC50 in the assay on MOLM-13 cells is 0.0274 µM; with Pfeiffer cells it was 0.266 µM; with HEL cells, 0.0821 µM; with AMO-1 cells, 0.722 µM; in the assay on KM12 cells it was 0.679 µM; in the assay on RS4;11 cells (setting [1]), < 0.1 µM. Besides, the 50% inhibitory concentration (IC50) in the assay on RS4;11 cells (setting [2]) is 0.00845 µM; with NCI-H929 cells it was 0.124 µM. Also, the JAK1 protein level result on JAK1 is “able to reduce JAK1, JAK2 and JAK3 protein levels”. Further, the “cell viability inhibition in combination with pomalidomide” value in the assay on HEL cells and in the assay with RS4;11 cells was “greatly reduce the potencies of the degraders” each time. In addition, on JAK3, the JAK3 protein level entry was “even better activity in reducing the JAK1 and JAK3 protein levels”.

Usually IC50 stands for the midpoint of a concentration-inhibition curve.
